Reference: patent publication US9555061B2, “Synthesis and analysis of compounds capable of inducing differentiation of human mesenchymal stems cells into hepatocytes” (National University Corporation Torrori University, priority 2011, dated 2017)

Assays:
UE7T-13 cells [1] = assay: Proliferation potential (toxicity), MTT assay (UE7T-13); conditions: for concentration with very low cell toxicity toward UE7T-13 cells: days 2, 4, 8 of treatment
[2] = tested on: Wnt/β-catenin signaling pathway; assay: Ability of inhibiting Wnt/β-catenin pathway, luciferase assay (UE7T-13); type: cell-based, human; conditions: 8 days after the treatment; pTCF4-CMV-luciferase reporter
Source text: FIG. 3 is a schematic diagram illustrating how to establish a human mesenchymal stem cell stably expressing a β-catenin/TCF4/luciferase reporter gene. FIG. 3 illustrates how to construct pTCF4-CMVpro-GL4.20 plasmid by using a luciferase expression vector. The pTCF4-CMVpro-GL4.20 plasmid contains three TCF4 sequences […] upstream of a CMV promoter to express luciferase. In addition, pCMVpro-GL4.20 plasmid was constructed as a control. The resulting plasmids were each linearized, introduced into UE7T-13 by electroporation, and selected using puromycin (0.25 μg/ml) supplemented in a medium. Puromycin-resistant cells were cloned and used for a luciferase assay.
The cell line having a vector stably expressing luciferase was seeded on a 24-well plate, and was cultured at 37° C. At the next day, the medium was changed to a medium containing IC-2, etc., and the cell line was further cultured at 37° C. After that, at days 1, 4, and 8, a luciferase assay system (Promega) was used and the luciferase activity was read with a fluorescence plate reader (ARVO) at a wavelength of 556 nm.

UE7T-13 cells [3] = assay: Periodic acid-Schiff (PAS) staining (UE7T-13); type: cell-based, human
Method: (3-4) Periodic Acid-Schiff (PAS) Staining (UE7T-13) A cover glass (22×22 mm, […]) was sterilized with 70% EtOH and placed in a 6-well plate. Next, cells were seeded on the cover glass and cultured in a medium containing IC-2, etc. At 8, 16, and 24 days after the initiation of the culture, the cells were washed twice with PBS. Then, the cells were treated with 4% paraformaldehyde/PBS for 20 min and fixed onto the cover glass. As a negative control, 10 mg/ml of α-amylase (10 mg/ml; in 0.1 M phosphate buffer solution at pH 6.8) was added, and the cells were incubated therewith at 37° C. for 1 h to digest their glycogen. Subsequently, 1% aqueous periodic acid was used for oxidation treatment for 10 min. After that, the cells were treated with a Schiff reagent for 15 min to stain glycogen. Then, the cells were washed three times with aqueous sulfurous acid and were washed three times with distilled water. After their nuclei were stained with Mayer's hematoxylin, 50% glycerol diluted with PBS was used to mount the cover glass. Finally, the cells were observed under a light microscope. The cells which had been cultured with 0.1% DMSO were used as a control.

[4] = tested on: CD90+CD271+ bone marrow-derived mesenchymal stem cells; assay: Urea assay in CD90+CD271+ bone marrow-derived mesenchymal stem cells; type: cell-based, human; conditions: hexachlorophene 4 μM, PN-3-13 20 μM, IC-2 40 μM; day 8 plus 96 h ammonium chloride
Method: A urea assay was performed according to the following protocol. CD90^+CD271^+ bone marrow-derived mesenchymal stem cells were seeded on a 24-well plate at a cell density of 1.8×10^4 cells/cm^2. This day was designated as day 0. At day 1 corresponding to the next day, each medium was changed to a medium containing hexachlorophene (at a final concentration of 4 μM), HC-2 (at a final concentration of 20 μM), PN-3-13 (at a final concentration of 20 μM), IC-2 (at a final concentration of 40 μM), or 0.1% DMSO. At day 4, the medium was changed in a manner similar to that at day 1, and the cells were cultured until day 8. At day 8, the medium was removed, and replaced with a medium containing ammonium chloride (Nacalai Tesque) at a final concentration of 5 mM. The cells were further cultured for 96 h. At 96 h after the addition of ammonium chloride, levels of urea in the medium were determined using a QuantiChrom Urea Assay Kit (BioAssay Systems) according to the attached protocol by reading the absorbance at a wavelength of 520 nm with a microplate reader. The levels of urea were calculated based on a standard sample according to the attached calculation method. As a negative control for the urea assay, used were CD90^+CD271^+ bone marrow-derived mesenchymal stem cells that were seeded one day before the day of the immunostaining and were not subjected to the differentiation induction.

UE7T-13 cells [5] = assay: RT-PCR of genes encoding liver-specific secretory proteins and cytokines (UE7T-13); type: cell-based, human; conditions: hexachlorophene 0.8 μM or IC-2 15 μM; days 8, 16, 24
Method: Bone marrow-derived mesenchymal stem cells (UE7T-13 cells) were treated with a compound, hexachlorophene (H4625-25G; Sigma-Aldrich, Inc.) or IC-2. At that time, gene expression of each of liver-specific secretory proteins and cytokines was evaluated. […] This time point was set to day 0.
At the next day corresponding to day 1, the medium was changed to DMEM containing hexachlorophene at a final concentration of 0.8 μM or IC-2 at a final concentration of 15 μM. […] After that, the medium was replaced twice during 8 days, and the cells were subcultured every 8 days. Then, the similar operation was carried out until day 24. At days 8, 16, and 24 after the initiation of the induction, TRIzol (Invitrogen) was used to extract total RNA according to the attached instruction. After the extraction, deoxyribonuclease (Nippon Gene) was added, and the mixture was incubated at 37° C. for 30 min to remove DNA. In a reverse transcription reaction, SuperScriptII Reverse Transcriptase (Invitrogen) and Oligo(dT)15 primer were added to 1 μg of RNA to convert it into cDNA. In a RT-PCR method, the cDNA was diluted by 5 times. Next, 1 μl of the cDNA was used as a template. Then, rTaq DNA polymerase (TOYOBO) was used to amplify the cDNA. MQ water was used as a negative control. cDNA from Huh-7 or UE7T-13 cells was used as a positive control. […]

[6] = tested on: clinical specimen-derived mesenchymal stem cells; assay: RT-PCR of hepatocyte differentiation marker in clinical specimen-derived mesenchymal stem cells; type: cell-based, human; conditions: hexachlorophene 4 μM, HC-2 20 μM, PN-3-13 20 μM, IC-2 40 μM
Method: A fresh bone marrow aspirate was collected under informed consent from a patient (a person) with osteoarthritis who underwent replacement arthroplasty at the Department of Orthopedic Surgery, Tottori University Hospital. This aspirate was subjected to density gradient centrifugation using ficoll (Amersham Biosciences) to separate bone marrow mononuclear cells (FIG. 31). These bone marrow mononuclear cells were suspended in 1 ml of Hanks' balanced salt solution (HBSS, Gibco, Life Technologies Corp.) supplemented with a 100-fold diluted APC-labeled anti-CD90 antibody, a 407-fold diluted PE-labeled anti-CD271 antibody, and 2% fetal bovine serum (FBS, Defined, Thermo Fisher Scientific Inc.), and were stained on ice for 30 min. A flow cytometer (MoFlo XDP, Beckman Coulter Inc.) was used to selectively separate mesenchymal stem cells. The resulting cells were cultured in Dulbecco's Modified Eagle's Medium (Low Glucose, Gibco, Life Technologies Corp.) containing 20% FBS, 100 U/ml penicillin, […] streptomycin (Nacalai Tesque), and 20 ng/ml basic fibroblast growth factor (TRANS GENIC INC., Ltd.) on a 35-mm dish under conditions at 37° C. and 5% CO2. The medium was changed every 4 days. After colonies were formed, the cells were detached using a 0.025% trypsin/1 mM EDTA solution (Nacalai Tesque), split on a 100-mm dish, and cultured under conditions at 37° C. and 5% CO2. Then, the cells which were kept 70 to 80% confluent were detached using trypsin treatment. These cells in one dish were divided into four dishes for passage.
Cells were seeded on a 6-well plate at a cell density of 1.8×10^4 cells/cm^2. This day was designated as day 0. At day 1 corresponding to the next day, the medium was changed to a medium containing any one of hexachlorophene (at a final concentration of 4 μM), HC-2 (at a final concentration of 20 μM), PN-3-13 (at a final concentration of 20 μM), IC-2 (at a final concentration of 40 μM), and 0.1% DMSO. […]

## Cc1ccc(/C=N/NC(=O)c2cccc(Oc3ccccc3)c2)o1 [PN-1-2, N′-[(E)-(5-methyl-2-fulyl)methylidene]-3-phenoxybenzohydrazide]
UE7T-13 cells [1]; day 8
  concentration at which proliferation potential did not remain: 10 µM
UE7T-13 cells [1]
  concentration with very low cell toxicity toward UE7T-13 cells: ≤ 40 µM
[2]
  concentration that significantly inhibited the Wnt/β-catenin signaling pathway: ≥ 3 µM

## Cc1ccc(C=NNC(=O)c2ccccc2Oc2ccccc2)o1 [PNU-74654, N-[(5-methyl-2-furyl)methylideneamino]-2-phenoxy-benzamide]
UE7T-13 cells [3]
  intracellular glycogen accumulation compared with negative control (0.1% DMSO): did not increase

## O=C(N/N=C/c1cccc2ccccc12)c1ccccc1Oc1ccccc1 [PN-3-4, N′-[(E)-1-naphtylmethylidene]-2-phenoxybenzohydrazide]
UE7T-13 cells [1]
  concentration with very low cell toxicity toward UE7T-13 cells: ≤ 30 µM
[2]
  concentration that significantly inhibited the Wnt/β-catenin signaling pathway: ≥ 20 µM

## Oc1c(Cl)cc(Cl)c(Cl)c1Cc1c(O)c(Cl)cc(Cl)c1Cl [hexachlorophene, reference compound]
[4]
  cellular urea synthesis compared with negative control (0.1% DMSO): apparent increase
UE7T-13 cells [5]
  expression of a plurality of the liver-specific secretory proteins and cytokines: increased levels of expression
[6]
  expression of albumin: induced
